# Where two headings read alike, the source gives them in different places.
# Experiments:
# TNF [1] = settings: different experimental models; cited from earlier work
# BALB/c mice = assay: LPS-induced shock model: survival and signs of endotoxemia after lethal LPS challenge; type: in vivo
# Protocol: Male BALB/c mice were injected with 11, 33 or 100 mg/kg of bupropion or with placebo i.p. in saline 1 h before challenge with 600 μg of E. coli LPS (Sigma, St. Louis, Mo.) by i.p. route. Mice were sacrificed 90 min for detection of cytokines in the serum by sandwich ELISA. Values represent the means±SEM of 5 mice per group. * P<0.05.
# BALB/c mice were injected intraperitoneally (i.p.) with bupropion or placebo 1 h prior to i.p. injection of LPS (600 ug/mouse).
# Male, 6 weeks old BALB/c mice were used in LPS-induced shock experiments. All mice were raised and maintained at the animal facilities at the Goncalo Moniz Research Center-FIOCRUZ, and provided with rodent diet and water ad libitum. Animal numbers in experimental groups were the minimum necessary to permit statistical analysis. All animals were sacrificed under anaesthesia.
# In some experiments, groups of mice received i.p. injection of propranolol (1 mg/Kg), SCH23390 (25 μg/kg) and sulpiride (25 mg/Kg) 1 h prior to injection of bupropion. […] To determine serum TNF, IL-1 beta and IL-10 levels, mice were sacrificed 90 min after injection of LPS and bled by axilar vein puncture. Levels of IFN-gamma and nitric oxide were assayed using sera of mice sacrificed 4 h after LPS injection. Platelet and leukocyte cell counts were performed using blood collected with EDTA after 4 h of LPS challenge, using an automated cell counter (ADVIA 60, Bayer).
# TNF [2] = settings: in vivo LPS-induced model; cited from earlier work
# [3] = system: cultures enriched in astrocytes; settings: added to in vitro cultures; cited from earlier work
# CD patients = settings: Kast 1998; cited from earlier work
# TNF [4] = settings: Goebel et al. 2000; cited from earlier work
# [5] = system: Crohn's patients with fistulas; settings: cited from earlier work
# [6] = system: patients with Crohn's disease; settings: cited from earlier work
compound,measurement,setting,value
COc1ccc(C2CNC(=O)C2)cc1OC1CCCC1 (stereo not drawn) [rolipram],TNF levels,TNF [1],lower TNF levels
CCN1CCCC1CNC(=O)c1cc(S(N)(=O)=O)ccc1OC (stereo not drawn) [sulpiride],effect of antagonist on bupropion mediated survival / protection,"BALB/c mice; antagonist i.p. 1 h prior to bupropion (propranolol 1 mg/Kg, SCH23390 25 μg/kg, sulpiride 25 mg/Kg), lethal LPS",did not interfere
same,protection from lethal LPS challenge by the antagonist alone,"BALB/c mice; without bupropion, propranolol 1 mg/Kg, SCH23390 25 μg/kg, sulpiride 25 mg/Kg i.p.",partial protection
same,TNF levels,TNF [2],lowered TNF levels
NCCc1ccc(O)c(O)c1 [dopamine],LPS-stimulated TNF production,[3],significantly blunted
NNCCc1ccccc1 [phenelzine],CD remission,CD patients,CD remission
NC[C@H](O)c1ccc(O)c(O)c1 [noradrenaline],LPS-stimulated TNF production,[3],significantly blunted
CC(C)NCC(O)c1ccc(O)c(O)c1 (stereo not drawn) [isoproteronol],TNF levels,TNF [4],lower TNF levels
same,LPS-stimulated TNF production,[3],significantly blunted
Remicaid: new drug given early FDA approval for Crohn's patients with fistulas,patients with complete remission,[5]; another study,48%
same,patients in whom half of the fistulas closed,[5]; one study,68%
bromocryptine,TNF levels,TNF [2],lowered TNF levels
"infliximab: monoclonal antibody acting against TNF-alpha, for moderate to severe Crohn's disease",patients in remission,"[6]; four weeks after medication, placebo 4 percent",33%
same,share of patients with a 50 percent reduction in fistula drainage,"[6]; second study, active fistulas, three doses two weeks apart",two-thirds
same,share of the patients' fistulas closed,"[6]; second study, active fistulas",over half

# Reference: patent US20060173080A1, “Methods of modulating TNF using bupropion” (The Regents of the University of California, priority 2002, published 2006)
